The target of one data set is PDE5 enzyme (Homo sapiens, UniProt O76074). Description: in vitro inhibition of cGMP PDE5. The format is biochemical. From the text:
The compounds of the present invention have been tested in vitro and found to be potent and selective inhibitors of cGMP PDE5.

Structures can show the parent of a compound that is named as a salt.

On to `CCCc1nn(C)c2c(=O)[nH]c(-c3cc(S(=O)(=O)N4CCN(CC(=O)N[C@@H](CS)C(=O)O)CC4)ccc3OCC)nc12` (as salt: salt) (hydrate or solvate) [Example 2, sildenafil analog amide with cysteine], for which the melting point was in the range of 166 to 168 °C.

In the case of `CCCc1nn(C)c2c(=O)[nH]c(-c3cc(S(=O)(=O)N4CCN(CC(=O)Oc5ccc(-c6cc(=S)ss6)cc5)CC4)ccc3OCC)nc12` [Example 1, sildenafil analog ester with 5-(p-hydroxyphenyl)-3H-1,2-dithiol-3-thione], the melting point fell in the range of 188 to 189 °C. The molecule also gave a concentration for half-maximal inhibition (IC50) against PDE5 enzyme of 6.8 to 7.2 nM.

In turn, `CCCc1nn(C)c2c(=O)[nH]c(-c3cc(S(=O)(=O)N4CCN(CC(=O)N[C@@H](CS)C(=O)O)CC4)ccc3OCC)nc12` [Example 2, sildenafil analog amide with cysteine] came in with an IC50 at PDE5 enzyme of 6.8 to 7.2 nM.

A word on the melting point: it is the temperature, or range, at which the solid turns liquid. As a reminder, the IC50 is the concentration needed to halve the response being measured. A higher IC50 goes with weaker potency in that assay.

These data come from patent US20090227597A1, “PYRAZOLOPYRIMIDINONES AS PHOSPHODIESTERASE INHIBITORS” (CTG PHARMA S.R.L., priority 2004, published 2009).
